The target of one assay is T1, MMP-9 (Homo sapiens, UniProt P14780).
T1 construct: from tissue; host or cells: human polymorphonuclear leukocytes (PMN) from whole blood (New York Blood Center), PMA-stimulated supernatant
The assay can be described thus: Thiopeptilide MMP-9 Inhibition Assay. Type of assay: biochemical. As to conditions: for inhibition at 5 µM: read-out: MMP-9: Thiopep. % inhibition.

Another assay addresses T2, MMP-3 (Homo sapiens, UniProt P08254).
T2 construct: Truncated Prostromelysin-257 was expressed in a soluble form in E.coli; made in house; host or cells: E. coli
The assay can be described thus: Primary Thiopeptilide MMP-3 Inhibition Assay. Type of assay: biochemical. The settings on record: for IC50: 13 nM stromelysin, x (n) = average of n determinations; for inhibition at 5 µM: read-out: MMP-3 Thiopep. % inhibition.

[1] abbreviates: pH 6.5, x (n) = average of n determinations, read-out: MMP-9: Thiopep. IC50.
[2] abbreviates: pH 6.5, read-out: MMP-3 Thiopep. IC50.

The structures appear in SMILES notation. Read-outs that look alike come from different tables or passages of the source.

T1 sequence (P14780 107-707 limits assumed): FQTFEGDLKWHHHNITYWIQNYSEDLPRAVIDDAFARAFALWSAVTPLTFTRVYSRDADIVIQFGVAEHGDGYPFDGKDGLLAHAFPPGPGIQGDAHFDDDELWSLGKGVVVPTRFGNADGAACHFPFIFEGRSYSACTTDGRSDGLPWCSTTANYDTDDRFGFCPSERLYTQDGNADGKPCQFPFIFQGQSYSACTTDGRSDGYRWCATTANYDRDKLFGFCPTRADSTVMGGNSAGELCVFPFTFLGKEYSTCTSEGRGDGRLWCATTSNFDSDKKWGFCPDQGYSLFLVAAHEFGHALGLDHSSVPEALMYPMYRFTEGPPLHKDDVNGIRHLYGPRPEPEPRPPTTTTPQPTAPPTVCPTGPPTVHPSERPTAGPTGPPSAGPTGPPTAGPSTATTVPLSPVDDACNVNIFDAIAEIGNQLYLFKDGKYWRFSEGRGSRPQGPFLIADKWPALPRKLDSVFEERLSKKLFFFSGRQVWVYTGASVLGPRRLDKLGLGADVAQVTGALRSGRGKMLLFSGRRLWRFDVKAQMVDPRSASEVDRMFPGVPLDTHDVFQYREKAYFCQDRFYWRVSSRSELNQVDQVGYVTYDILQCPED
T2 sequence (P08254 100-274 limits assumed): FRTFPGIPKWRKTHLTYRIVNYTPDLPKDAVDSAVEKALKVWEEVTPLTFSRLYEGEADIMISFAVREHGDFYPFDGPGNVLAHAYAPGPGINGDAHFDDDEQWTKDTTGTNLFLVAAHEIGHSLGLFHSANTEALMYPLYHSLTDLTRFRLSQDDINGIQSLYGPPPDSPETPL
Description for MMP-3: Enzyme: recombinant stromelysin expressed in E.coli and purified as described above. […] The protocols for the assay of compounds as stromelysin inhibitors was the same as that used for MMP-9 except that the assay buffer was 50 mM MES, pH 6.5 containing 150 mM NaCl, 10 mM CaCl2, 0.005% Brij, and 1% DMSO.

Turning to `COc1ccc(CSCC(CC(=O)c2ccc(-c3ccc(Cl)cc3)cc2)C(=O)O)cc1` (stereo not drawn) [Example 201, [1,1'-Biphenyl]-4-butanoic acid, 4'-chloro-α-[[[(4-methoxyphenyl)methyl]thio]methyl]-γ-oxo-], the figures for the IC50 on MMP-9 (setting [1]) and on MMP-3 (setting [2]) were 800 nM and 340 nM, respectively.
The matching figures for `O=C(O)[C@@H]1[C@@H](C(=O)c2ccc(-c3ccc(Cl)cc3)cc2)CC[C@H]1Sc1ccc(F)cc1` (relative stereo) [Example 309, Cyclopentanecarboxylic acid, 2-[(4'-chloro[1,1'-biphenyl]-4-yl)carbonyl]-5-[(4-fluorophenyl)thio]-, (1α,2β-5β)-]: 62 nM and 73 nM.
Regarding `O=C(CC(CCCc1ccccc1)C(=O)O)c1ccc(-c2ccc(CO)cc2)cc1` (stereo not drawn) [Example 53, [1,1'-Biphenyl]-4-butanoic acid, 4'-(hydroxymethyl)-γ-oxo-α-(3-phenylpropyl)-], the IC50 (in general, the point on the concentration scale where inhibition reaches its midpoint) on MMP-9 (setting [1]) stood at 800 nM; on MMP-3 (setting [2]) it was 950 nM.
The matching figures for `Cc1cccc(SCC(CC(=O)c2ccc(-c3ccc(Cl)cc3)cc2)C(=O)O)c1` (stereo not drawn) [Example 231, [1,1'-Biphenyl]-4-butanoic acid, 4'-chloro-α-[[(3-methylphenyl)thio]methyl]-γ-oxo-]: 820 nM and 280 nM.
`CN(C)c1ccc(-c2ccc(C(=O)CC(CCCc3ccccc3)C(=O)O)cc2)cc1` (stereo not drawn) [Example 60, [1,1'-Biphenyl]-4-butanoic acid, 4'-(dimethylamino)-γ-oxo-α-(3-phenylpropyl)-]: the IC50 at MMP-9 (setting [1]) was determined as 180 nM; on MMP-3 (setting [2]), 600 nM.
As for `O=C(CC(CCCCCCc1ccccc1)C(=O)O)c1ccc(-c2ccc(Cl)cc2)cc1` (stereo not drawn) [Example 181, [1,1'-Biphenyl]-4-butanoic acid, 4'-chloro-γ-oxo-α-(6-phenylhexyl)-], the figures for the IC50 at MMP-9 (setting [1]) and at MMP-3 (setting [2]) were 290 nM and 330 nM, respectively.
As for `C[C@H](C(=O)c1ccc(-c2ccc(Cl)cc2)cc1)[C@@H](C)C(=O)O` (relative stereo) [Example 284, [1,1'-Biphenyl]-4-butanoic acid, 4'-chloro-α,β-dimethyl-γ-oxo-, (R*,S*)-], the inhibition (commonly the relative decrease from the control value, in per cent) at 5 µM came to 1% on MMP-9 and 10% on MMP-3.
Turning to `COc1cccc(CCC(CC(=O)c2ccc(-c3ccc(Cl)cc3)cc2)C(=O)O)c1` (stereo not drawn) [Example 188, [1,1'-Biphenyl]-4-butanoic acid, 4'-chloro-α-[2-(3-methoxyphenyl)ethyl]-γ-oxo-], the IC50 at MMP-9 (setting [1]) was found to be 1300 nM; on MMP-3 (setting [2]), 151 nM.
The matching figures for `O=C(CC(CSc1ccc(O)cc1)C(=O)O)c1ccc(-c2ccc(Cl)cc2)cc1` (stereo not drawn) [Example 204, [1,1'-Biphenyl]-4-butanoic acid, 4'-chloro-α-[[(4-hydroxyphenyl)thio]methyl]-γ-oxo-]: 215 nM and 213 nM.
As to `O=C(CC(CSc1ccccc1Cl)C(=O)O)c1ccc(-c2ccc(Cl)cc2)cc1` (stereo not drawn) [Example 230, [1,1'-Biphenyl]-4-butanoic acid, 4'-chloro-α-[[(2-chlorophenyl)thio]methyl]-γ-oxo-], the figures for the 50% inhibitory concentration (IC50) on MMP-9 (setting [1]) and at MMP-3 (setting [2]) were 550 nM and 250 nM, respectively.
The matching figures for `O=C(CC(CSc1cccc2ccccc12)C(=O)O)c1ccc(-c2ccc(Cl)cc2)cc1` (stereo not drawn) [Example 227, [1,1'-Biphenyl]-4-butanoic acid, 4'-chloro-α-[(1-naphthalenylthio)methyl]-γ-oxo-]: 360 nM and 220 nM.
For the compound `CC(C)(C)OC(=O)NCc1ccc(-c2ccc(C(=O)CC(CCCc3ccccc3)C(=O)O)cc2)cc1` (stereo not drawn) [Example 49, [1,1'-Biphenyl]-4-butanoic acid, 4'-[[[(1,1-dimethylethoxy)carbonyl]amino]methyl]-γ-oxo-α-(3-phenylpropyl)-], the inhibition at 5 µM at MMP-9 came out at 13%. For the same compound, on MMP-3 (setting [2]), the IC50 is 750 nM.
Take `O=C(CC(CSCCc1ccccc1)C(=O)O)c1ccc(-c2ccc(Cl)cc2)cc1` (stereo not drawn) [Example 205, [1,1'-Biphenyl]-4-butanoic acid, 4'-chloro-γ-oxo-α-[[(2-phenylethyl)thio]methyl]-]: the half-maximal inhibitory concentration (IC50) on MMP-9 (setting [1]) turned out to be 170 nM; on MMP-3 (setting [2]), 87 nM.
As for `O=C(CC(CCCc1ccccc1)C(=O)O)c1ccc(-c2cccc(C(F)(F)F)c2)cc1` (stereo not drawn) [Example 81, [1,1'-Biphenyl]-4-butanoic acid, γ-oxo-α-(3-phenylpropyl)-3'-(trifluoromethyl)-], the inhibition at 5 µM is 12% on MMP-9 and 30% on MMP-3.
As to `O=C(CC(CSc1ccccc1O)C(=O)O)c1ccc(-c2ccc(Cl)cc2)cc1` (stereo not drawn) [Example 240, [1,1'-Biphenyl]-4-butanoic acid, 4'-chloro-α-[[(2-hydroxyphenyl)thio]methyl]-γ-oxo-], the IC50 at MMP-9 (setting [1]) amounted to 300 nM; at MMP-3 (setting [2]), 96 nM.
Taken in the same sequence, the figures for `O=C(CC(CCCN1C(=O)c2ccccc2C1=O)C(=O)O)c1ccc(-c2ccc(Cl)cc2)cc1` (stereo not drawn) [Example 262, 2H-Isoindole-2-pentanoic acid, α-[2-(4'-chloro[1,1'-biphenyl]-4-yl)-2-oxoethyl]-1,3-dihydro-1,3-dioxo-] were 76 nM and 95 nM.
Taken in the same sequence, the figures for `CC(=O)SCC(CC(=O)O)C(=O)c1ccc(-c2ccc(Cl)cc2)cc1` (stereo not drawn) [Example 258, [1,1'-Biphenyl]-4-butanoic acid, β-[(acetylthio)methyl]-4'-chloro-γ-oxo-, reference compound] were 2100 nM and 820 nM.
Consider `O=C(CCC(CCCc1ccccc1)C(=O)O)c1ccc(-c2ccc(Cl)cc2)cc1` (stereo not drawn) [Example 341, [1,1'-Biphenyl]-4-pentanoic acid, 4'-chloro-δ-oxo-α-(3-phenylpropyl)-], for which the IC50 at MMP-9 (setting [1]) was found to be 3800 nM; on MMP-3 (setting [2]) it was 2400 nM.
For `O=C(CC(C(=O)O)N1CCSCC1)c1ccc(-c2ccc(Cl)cc2)cc1` (centres unmarked) [Example 259], the inhibition at 5 µM on MMP-9 is 37%. For the same compound, the IC50 at MMP-3 (setting [2]) was 2600 nM.
On to `COc1ccc(SCC(CC(=O)c2ccc(-c3ccc(Cl)cc3)cc2)C(=O)O)cc1OC` (stereo not drawn) [Example 215, [1,1'-Biphenyl]-4-butanoic acid, 4'-chloro-α-[[(3,4-dimethoxyphenyl)thio]methyl]-γ-oxo-], for which the IC50 on MMP-9 (setting [1]) came to 1200 nM; at MMP-3 (setting [2]), 1300 nM.
Consider `CC(C)CC(CCC(=O)O)C(=O)c1ccc(-c2ccc(Cl)cc2)cc1` (centres unmarked) [Example 342], for which the IC50 came to 700 nM at MMP-9 (setting [1]) and 360 nM on MMP-3 (setting [2]).
As for `C[Si](C)(C)CC(CC(=O)c1ccc(-c2ccc(Cl)cc2)cc1)C(=O)O` (stereo not drawn) [Example 133, [1,1'-Biphenyl]-4-butanoic acid, 4'-chloro-γ-oxo-α-[(trimethylsilyl)methyl]-], the IC50 against MMP-9 was found to be 10000 nM; at MMP-3 (MMP-3 Thiopep. IC50, pH 6.5), 640 nM.
For `O=C(O)CCC(=O)c1ccc(-c2ccccc2Cl)cc1` [Example 10, [1,1'-Biphenyl]-4-butanoic acid, 2'-chloro-γ-oxo-, reference compound], the inhibition at 5 µM on MMP-9 was 0%; on MMP-3 it was 1%.
For `Nc1ccc(-c2ccc(C(=O)CC(CCCc3ccccc3)C(=O)O)cc2)cc1` (stereo not drawn) [Example 58, [1,1'-Biphenyl]-4-butanoic acid, 4'-amino-γ-oxo-α-(3-phenylpropyl)-], the figures for the IC50 at MMP-9 (setting [1]) and at MMP-3 (setting [2]) were 1500 nM and 1200 nM, respectively.
The matching figures for `O=C(CC(CCCc1ccccc1)C(=O)O)c1ccc(-c2ccc([N+](=O)[O-])cc2)cc1` (stereo not drawn) [Example 63, [1,1'-Biphenyl]-4-butanoic acid, 4'-nitro-γ-oxo-α-(3-phenylpropyl)-]: 500 nM and 980 nM.

The values are drawn from patent US5789434A, “Derivatives of substituted 4-biarylbutyric acid as matrix metalloprotease inhibitors” (priority 1995, dated 1998).
